Measurements reported in US6596863B2, “Medical composition containing nitroetheneamine Derivative or salt there of as active constituent” (Ishihara Sangyo Kaisha, Ltd., priority 1998, dated 2003).
Like-named read-outs stand apart in the source and are kept apart here.

How the values were obtained:
[1] = molecular target: T1, human MMP-9 (gelatinase B) (Homo sapiens, UniProt P14780); assay: Inhibition activity against human MMP-9 (gelatinase B), fluorescent peptide substrate; format: biochemical
T1 construct: endogenous in cells; host or cells: HT1080 human fibrosarcoma cells (ATCC CCL-121), PMA-stimulated; enzyme purified from the culture supernatant
T1 sequence (P14780 107-707 limits assumed): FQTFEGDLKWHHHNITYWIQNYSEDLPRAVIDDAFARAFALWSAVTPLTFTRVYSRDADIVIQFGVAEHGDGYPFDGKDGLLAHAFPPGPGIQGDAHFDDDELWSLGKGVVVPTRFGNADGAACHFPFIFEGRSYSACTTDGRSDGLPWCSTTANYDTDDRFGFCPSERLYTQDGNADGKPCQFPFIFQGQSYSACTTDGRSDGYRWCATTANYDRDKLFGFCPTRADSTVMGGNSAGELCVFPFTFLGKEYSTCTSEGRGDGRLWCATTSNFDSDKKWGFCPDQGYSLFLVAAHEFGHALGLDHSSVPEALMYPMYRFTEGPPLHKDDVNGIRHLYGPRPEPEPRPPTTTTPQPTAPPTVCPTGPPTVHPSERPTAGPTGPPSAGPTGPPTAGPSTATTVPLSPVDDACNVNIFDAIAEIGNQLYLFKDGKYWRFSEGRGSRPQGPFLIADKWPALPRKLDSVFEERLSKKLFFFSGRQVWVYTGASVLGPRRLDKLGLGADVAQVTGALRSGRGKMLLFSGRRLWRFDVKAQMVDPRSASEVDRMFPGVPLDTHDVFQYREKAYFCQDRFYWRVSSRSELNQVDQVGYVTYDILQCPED
Protocol: Human MMP-9 (gelatinase B) was purified by the following method from a culture supernatant of HT1080 cells (human fibrosarcoma).
2.5×10^6 HT1080 cells (ATCC CCL-121, purchased from Dainippon Seiyaku) were inoculated to a tissue culture dish (Code No. 3020-100, manufactured by Iwaki Glass Co., Ltd.) having a diameter of 10 cm and containing 10 ml of Dulbecco's Modified Eagle Medium (DME, No. D-5648, manufactured by Sigma Co.) containing 10% fetal bovine serum (FBS: REHATUIN™, Code No. 1020-90, manufactured by Intergen Co.) and cultured for 72 hours at 37° C. in an atmosphere comprising 5% of CO2 and 95% of air (Carbon Dioxide Incubator LNA-122D Model, manufactured by Tabai Co.). Then, the medium was changed to 10 ml of a DME culture medium containing no FBS, and phorbol 12-myristate 13-acetate (PMA, code No. 163-114851, manufactured by Wako Pure Chemical Industries, Ltd.) was added so that the final concentration became 10 ng/ml. Under the same conditions, the culturing was carried out for further 20 hours, whereupon the culture supernatant was collected and subjected to cool centrifugation at 4° C. for 5 minutes (cool centrifugal separator, manufactured by Hitachi) to remove cell fragments.
The pH of a conditioned medium (50 ml) containing MMP-9, thus prepared, was adjusted to 8.0 with 0.2N NaOH. […] Namely, the above-mentioned conditioned medium was passed through DEAE-Sephacel (manufactured by Pharmacia, gel volume: about 35 ml) preliminarily equilibrated with 50 mM Tris-HCl, pH 8.0 (A buffer), and a non-adsorption fraction was collected. Then, it was added to Dye Matrix Gel Green A (manufactured by Amicon Co., gel volume: about 6 ml) preliminarily equilibrated with 50 mM Tris-HCl, pH 7.5/10 MM CaCl2/0.05% Brij 35/0.02% NaN3 (B buffer) and thoroughly washed with the same buffer, whereupon the adsorbed enzyme was eluted with a 1M NaCl-containing B buffer. About 7.5 ml of the eluted fraction was diluted twice with the B buffer and added to Gelatin-Sepharose 4B (manufactured by Pharmacia, gel volume: about 6 ml) preliminarily equilibrated with a 0.5 M NaCl-containing B buffer. It was thoroughly washed with a 0.5M NaCl-containing B buffer, and eluted with the B buffer containing 10% of dimethylsulfoxide (DMSO) and 0.5 M of NaCl. 5.5 ml of the eluted fraction was dialyzed against a 0.1 M NaCl-containing B buffer to obtain 5.2 ml of a purified enzyme solution. The purified MMP-9 standard product was confirmed to have a single band of 92 kDa by a protein staining by SDS electrophoresis, and further, it was confirmed to have an adequate gelatin decomposing activity by gelatinzymography (carried out in accordance with a method by Howard E. W. et al; Journal Biological Chemistry, Vol. 266, 13064-13069, 1991) and to have an adequate substrate decomposing activity by the after-mentioned measurement employing a fluorescent peptide substrate specific to MMP.
The inhibition activity against human MMP-9 was measured by the following method in accordance with the method by C. G. Knight et al (FEBS Letters, Vol, 296, 263-266, 1992) employing a fluorescent peptide substrate (7-methoxycoumarin-4-yl)Acetyl-Pro-Leu-Gly-Leu-(3-[2,4-dinitrophenyl]—Ala—Arg-NH2, Code 3163-VC, manufactured by Peptide Institute, Inc.
Further, as the case requires, commercially available human MMP-9 purified enzyme (No. YU-18003, manufactured by Kabushiki Kaisha Yagai Chuo Kenkyusho; used in a final concentration of from 0.0125 to 0.025 unit/ml, No. CC079, manufactured by Chemicon International, Inc.; used in a final concentration of 0.2 μg/ml) was used for the tests. […]

[2] = compounds of the formula (I), 1st measurement, read-out: MMP-9 inhibition activities IC50, 1st
[3] = compounds of the formula (I), 2nd measurement, read-out: MMP-9 inhibition activities IC50, 2nd
[4] = compounds of the formula (I), average of 1st and 2nd (or single measurement), read-out: MMP-9 inhibition activities IC50, Average
[5] = intermediates, compounds of the formula (IV), 1st measurement, read-out: MMP-9 inhibition activities IC50, 1st
[6] = intermediates, compounds of the formula (IV), 2nd measurement, read-out: MMP-9 inhibition activities IC50, 2nd
[7] = intermediates, compounds of the formula (IV), average of 1st and 2nd (or single measurement), read-out: MMP-9 inhibition activities IC50, Average

| melting point | IC50 [1, 2] | IC50 [1, 3] | IC50 [1, 4] | IC50 [1, 5] | IC50 [1, 6] | IC50 [1, 7] | Compound |
| --- | --- | --- | --- | --- | --- | --- | --- |
| 93.5 to 98.5 °C | 30 µM | 39.3 µM | 34.7 µM |  |  |  | CCNC(=C[N+](=O)[O-])NN [compound 117] |
| 193 °C (dec.) | 8.8 µM | 7.8 µM | 8.3 µM |  |  |  | CNC(=C[N+](=O)[O-])NNc1cc(C(F)(F)F)cc(OC)n1 [Compound No. 98, N-methyl-1-(2-(4-trifluoromethyl-6-methoxy-2-pyridyl)hydrazino)-2-nitroetheneamine] |
| 198 °C (dec.) | 42.1 µM | 57.1 µM | 49.6 µM |  |  |  | CCOc1ccc(NC(=C[N+](=O)[O-])NN)cc1 [compound 70] |
| 170 to 173 °C (dec.) | 7.9 µM |  | 7.9 µM |  |  |  | O=[N+]([O-])C=C(NNc1cc(C(F)(F)F)cc(Cl)n1)NS(=O)(=O)c1ccccc1 [compound 159] |
|  | 36.2 µM | 34.8 µM | 35.5 µM |  |  |  | CCCCCCCCNC(=C[N+](=O)[O-])NN [compound 46] |
| 159 to 160 °C | 18.3 µM | 26.6 µM | 22.5 µM |  |  |  | CNC(=C[N+](=O)[O-])NN=Cc1ccccc1 [compound 18] |
| 190 °C (dec.) | 39 µM | 36.6 µM | 37.8 µM |  |  |  | NNC(=C[N+](=O)[O-])NCc1ccccn1 [compound 79] |
| 166 to 167 °C (dec.) | 14.2 µM | 17 µM | 15.6 µM |  |  |  | CNC(=C[N+](=O)[O-])NNc1nc(OC)cc(OC)n1 [compound 105] |
| 179 °C (dec.) | 19.9 µM | 18.1 µM | 19 µM |  |  |  | CNC(=C[N+](=O)[O-])NN=Cc1ccc2c(c1)OCCO2 [compound 141] |
|  | 14.6 µM | 22.1 µM | 18.4 µM |  |  |  | CNC(=C[N+](=O)[O-])NN(C)c1ncc(C(F)(F)F)cc1Cl [Compound No. 35, N-methyl-1-(2-methyl-2-(3-chloro-5-trifluoromethyl-2-pyridyl)hydrazino)-2-nitroetheneamine] |
| 221 to 222 °C (dec.) |  |  |  | 61.5 µM | 50.4 µM | 56 µM | CSC(=C[N+](=O)[O-])Nc1ccc2c(c1)C(=O)CO2 [Intermediate 52] |
| 147 °C | 10.3 µM | 10.9 µM | 10.6 µM |  |  |  | CCOCCCOc1cc(C(F)(F)F)cc(NNC(=C[N+](=O)[O-])NC)n1 [compound 197] |
| 168 °C (dec.) | 14.8 µM | 11.4 µM | 13.1 µM |  |  |  | CNC(=C[N+](=O)[O-])NNS(=O)(=O)c1cccc2ccccc12 [compound 150] |
| 169 °C (dec.) | 10.7 µM | 6.1 µM | 8.4 µM |  |  |  | CCCCOc1cc(C(F)(F)F)cc(NNC(=C[N+](=O)[O-])NC)n1 [compound 177] |
| 196 °C (dec.) | 41.8 µM | 41.5 µM | 41.7 µM |  |  |  | NNC(=C[N+](=O)[O-])NC1CCCCC1 [compound 86] |
| 159 °C (dec.) | 31.9 µM | 31.5 µM | 31.7 µM |  |  |  | CNC(=C[N+](=O)[O-])NN=C(C)OC [compound 26] |
| 185 to 186 °C (dec.) | 11.7 µM | 8.4 µM | 10.1 µM |  |  |  | CCOc1cc(C(F)(F)F)cc(NNC(=C[N+](=O)[O-])NC)n1 [compound 106] |
| 209 to 213 °C (dec.) | 29.6 µM | 16.3 µM | 23 µM |  |  |  | NNC(=C[N+](=O)[O-])Nc1ccc2cn[nH]c2c1 [compound 152] |
| 197 °C (dec.) | 12.3 µM |  | 12.3 µM |  |  |  | CNC(=C[N+](=O)[O-])NNc1c(Cl)cncc1Cl [compound 186] |
|  |  |  |  | 11.4 µM |  | 11.4 µM | CCS(=O)(=O)NC(=C[N+](=O)[O-])SC [Intermediate 59] |

| melting point | IC50 [1, 2] | IC50 [1, 3] | IC50 [1, 4] | IC50 [1, 5] | IC50 [1, 6] | IC50 [1, 7] | Compound |
| --- | --- | --- | --- | --- | --- | --- | --- |
|  |  |  |  | 49.4 µM | 37.5 µM | 43.5 µM | CSC(=C[N+](=O)[O-])NS(C)(=O)=O [Intermediate 57, N-(1-(methylthio)-2-nitroethenyl)methanesulfonamide] |
|  | 30.8 µM | 24.5 µM | 27.7 µM |  |  |  | CNC(=C[N+](=O)[O-])NN=Cc1ccccn1 [Compound No. 29, 2-pyridinecarbaldehyde 1-methylamino-2-nitroethenylhydrazone] |
|  | 27.3 µM | 32.1 µM | 29.7 µM |  |  |  | NNC(=C[N+](=O)[O-])Nc1ccc(Cl)cc1 [compound 51] |
|  | 52.9 µM | 19 µM | 36 µM |  |  |  | CNNC(=C[N+](=O)[O-])NC [compound 82] |
|  | 66.2 µM | 14.2 µM | 36 µM |  |  |  | CNC(=C[N+](=O)[O-])NN(C)C [compound 83] |
|  |  |  |  | 29.9 µM | 35.6 µM | 32.8 µM | CSC(=C[N+](=O)[O-])Nc1ccc(Cl)cc1 [Intermediate 19] |
|  | 37.7 µM | 57.5 µM | 47.6 µM |  |  |  | CC(C)NC(=C[N+](=O)[O-])NN [compound 88] |
|  |  |  |  | 26.9 µM |  | 26.9 µM | CNC(=C[N+](=O)[O-])SC [Intermediate 5] |
|  | 45.1 µM | 24.7 µM | 34.9 µM |  |  |  | O=[N+]([O-])C=C(NNc1ccccc1)Nc1ccccc1 [Compound No. 2] |
|  |  |  |  | 33 µM |  | 33 µM | CCNC(=C[N+](=O)[O-])SC [Intermediate 6] |
|  | 43.4 µM | 14.2 µM | 28.8 µM |  |  |  | CNC(=C[N+](=O)[O-])NNc1ccccc1 [compound 84] |
|  | 9.2 µM |  | 9.2 µM |  |  |  | CS(=O)(=O)NC(=C[N+](=O)[O-])NN1CCOCC1 [Compound No. 163, N-(1-(N-morpholino)amino-2-nitroethenyl)methanesulfonamide] |
|  | 45.7 µM | 35.3 µM | 40.5 µM |  |  |  | CNC(=C[N+](=O)[O-])NNc1cc(C(F)(F)F)ncn1 [compound 97] |
|  | 15 µM | 35 µM | 25 µM |  |  |  | CNC(=C[N+](=O)[O-])NNS(C)(=O)=O [compound 108] |
|  |  |  |  | 4.3 µM |  | 4.3 µM | CONC(=C[N+](=O)[O-])SC [Intermediate 63] |
|  | 52.8 µM | 41.1 µM | 47 µM |  |  |  | CCCCNC(=C[N+](=O)[O-])NN [compound 85] |
|  |  |  |  | 26.9 µM | 46.6 µM | 36.8 µM | CSC(=C[N+](=O)[O-])NC(C)C [Intermediate 10] |
|  | 48.3 µM | 44.8 µM | 46.6 µM |  |  |  | CNC(=C[N+](=O)[O-])NN [compound 93] |
|  | 24.3 µM | 43.5 µM | 33.9 µM |  |  |  | C=C1C(C)=NN/C(=C\[N+](=O)[O-])N1c1ccccc1 [compound 155] |
|  |  |  |  | 4.4 µM |  | 4.4 µM | CSC(=C[N+](=O)[O-])NS(C)(=O)=O (single isomer, unassigned) [Intermediate 64] |
